For test [1], the target named is T1, NLRP3 (Homo sapiens, UniProt Q96P20).
T1 construct: Addgene (plasmid only) 73955
Briefly: MST binding to NLRP3-GFP. Particulars: Fig 6C.
Method: Binding of NOD1, NOD2, GFP, or NLRP3‐GFP to different ligands was measured by microscale thermophoresis (MST). 20 nM GFP or GFP‐tagged proteins in MST buffer (PBS pH 7.4, containing 0.5% NP‐40 and 10 mM DTT) was incubated with different concentrations of ligands. Immediately, samples were loaded into standard glass capillaries (NanoTemper) and thermophoresis analysis was performed on a NanoTemper Monolith NT.115 instrument (40% LED, 80% MST power) at 22°C. A laser on‐time of 30 s and a laser off‐time of 5 s were used. The experiment was performed in triplicates, and the MST curves were fitted using NT analysis software to obtain the K d values.

Test [2] relates to BMDMs. The experiment in a line: Il6 expression and multiplex cytokine production in WT, Nod1/2 KO and Rip2 KO BMDMs. Particulars: S1P 10 µM with digitonin (2.5 µg/ml); WT vs Nod1/2 KO and Rip2 KO. In kind it is cell-based, mice. The procedure: The human monocytic cell line THP‐1 was obtained from the American Type Culture Collection (ATCC, TIB‐202) and maintained in RPMI 1640 (Gibco, 31870) with 10% (v:v) heat‐inactivated fetal bovine serum (FBS, Sigma‐Aldrich, F0804), 1 mM sodium pyruvate (Gibco, 11360070), 2 mM L‐glutamine (Gibco, 25030081), 10 mM HEPES buffer (Gibco, 15630080), pH 7.2‐7.5, and 50 µM 2‐mercaptoethanol (Gibco, 31350010). To differentiate THP‐1 into macrophage‐like cells, THP‐1 cells were stimulated with 50 ng/ml phorbol 12‐myristate 13‐acetate (Sigma‐Aldrich, P8139) for 24 h and then incubated with fresh medium for another 48 h. HEK293T WT and HEK293T NOD1/2 dKO cells were generated as described (Dagil et al, 2016). […]
Total RNA was isolated with TRIzol reagent, as described by the manufacturer (Invitrogen). […] Gene expression was normalized to glyceraldehyde‐3‐phosphate dehydrogenase (GAPDH), and fold changes were calculated against corresponding controls. qRT–PCR data were representative of at least three independent experiments, with at least 2 technical replicates per experiment. […]

In test [3] the test system is HeLa NOD1 or NOD2 cells. The experiment in a line: Western blot analysis in HeLa NOD1 or NOD2 cells. In kind it is cell-based, human. The procedure: Cells were lysed in RIPA buffer supplemented with protease inhibitor cocktail and PhosSTOP (Roche, 4906837001) on ice for 10 min. After centrifugation at 16,000 × g for 10 min, supernatants were heated with SDS sample buffer at 95°C for 10 min. Proteins were separated on 4–15% SDS gels (Bio‐Rad, 4561086) and transferred onto nitrocellulose membranes. The membranes were incubated with primary antibodies at 4°C overnight and secondary antibodies at RT for 1 h, respectively. All antibodies were diluted in PBS supplemented with 0.1% Tween‐20 (Sigma‐Aldrich, P1379) and 5% BSA. Membranes were developed with ECL detection Kit (Thermo Fisher Scientific, 34094) and exposed with ChemiDoc (Bio‐Rad). The antibody against ACTB/β‐actin was used as loading control.
A general note: A western blot detects proteins with antibodies after separation by electrophoresis.

Test [4] concerns the target NOD2 (Homo sapiens, UniProt Q9HC29). Briefly: Microscale thermophoresis (MST) binding to purified NOD2-GFP. How it is done: The lysates were incubated with 2 ml GFP‐Trap agarose at 4°C for 4 h. The agarose was collected with Poly‐Prep columns by gravity flow. […] To remove heat shock proteins, columns were further washed with 50 ml wash buffer III (50 mM Tris–HCl, pH 7.5, 150 mM NaCl, 5 mM MgCl2+, 1 mM ATP). To elute the proteins, the agarose was mixed with 2 ml elution buffer (100 mM Glycine, pH 2.5) for 1 min and the eluted proteins were immediately neutralized with 0.2 ml of 1 M Tris, pH 10.5.
Background: MST reads how a fluorescent partner responds to local heating, with and without ligand.

Read-outs that look alike come from different tables or passages of the source.

The results in this text go back to PMC8246065 (The EMBO Journal, 2021).

NOD2, sequence (Q9HC29 whole entry): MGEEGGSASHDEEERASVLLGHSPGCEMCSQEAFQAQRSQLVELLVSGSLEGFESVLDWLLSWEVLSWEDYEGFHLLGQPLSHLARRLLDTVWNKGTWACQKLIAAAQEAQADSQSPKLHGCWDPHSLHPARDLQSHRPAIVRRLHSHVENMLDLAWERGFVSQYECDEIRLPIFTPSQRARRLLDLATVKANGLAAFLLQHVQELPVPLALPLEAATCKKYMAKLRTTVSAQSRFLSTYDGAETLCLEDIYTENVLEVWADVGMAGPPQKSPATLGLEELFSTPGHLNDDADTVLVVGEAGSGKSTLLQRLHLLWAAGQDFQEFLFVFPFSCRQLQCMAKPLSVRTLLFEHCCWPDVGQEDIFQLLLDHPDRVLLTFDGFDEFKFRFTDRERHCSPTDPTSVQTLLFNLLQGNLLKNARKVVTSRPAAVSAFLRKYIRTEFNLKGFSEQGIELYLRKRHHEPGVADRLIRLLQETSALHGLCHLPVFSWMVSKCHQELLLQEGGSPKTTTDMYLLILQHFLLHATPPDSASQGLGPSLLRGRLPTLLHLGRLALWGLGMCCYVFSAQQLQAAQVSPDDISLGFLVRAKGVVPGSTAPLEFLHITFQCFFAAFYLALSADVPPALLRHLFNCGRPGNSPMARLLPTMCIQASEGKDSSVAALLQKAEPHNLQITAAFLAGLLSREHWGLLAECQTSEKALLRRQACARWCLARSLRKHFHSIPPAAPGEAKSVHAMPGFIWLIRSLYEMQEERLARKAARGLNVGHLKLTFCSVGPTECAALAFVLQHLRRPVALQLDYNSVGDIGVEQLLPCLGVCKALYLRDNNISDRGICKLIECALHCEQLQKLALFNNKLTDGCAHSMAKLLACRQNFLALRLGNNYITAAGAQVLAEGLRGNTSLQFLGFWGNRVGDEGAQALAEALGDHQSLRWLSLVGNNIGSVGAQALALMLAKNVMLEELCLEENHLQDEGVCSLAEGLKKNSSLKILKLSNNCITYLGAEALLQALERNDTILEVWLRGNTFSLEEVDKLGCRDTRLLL
T1 sequence (Q96P20 whole entry): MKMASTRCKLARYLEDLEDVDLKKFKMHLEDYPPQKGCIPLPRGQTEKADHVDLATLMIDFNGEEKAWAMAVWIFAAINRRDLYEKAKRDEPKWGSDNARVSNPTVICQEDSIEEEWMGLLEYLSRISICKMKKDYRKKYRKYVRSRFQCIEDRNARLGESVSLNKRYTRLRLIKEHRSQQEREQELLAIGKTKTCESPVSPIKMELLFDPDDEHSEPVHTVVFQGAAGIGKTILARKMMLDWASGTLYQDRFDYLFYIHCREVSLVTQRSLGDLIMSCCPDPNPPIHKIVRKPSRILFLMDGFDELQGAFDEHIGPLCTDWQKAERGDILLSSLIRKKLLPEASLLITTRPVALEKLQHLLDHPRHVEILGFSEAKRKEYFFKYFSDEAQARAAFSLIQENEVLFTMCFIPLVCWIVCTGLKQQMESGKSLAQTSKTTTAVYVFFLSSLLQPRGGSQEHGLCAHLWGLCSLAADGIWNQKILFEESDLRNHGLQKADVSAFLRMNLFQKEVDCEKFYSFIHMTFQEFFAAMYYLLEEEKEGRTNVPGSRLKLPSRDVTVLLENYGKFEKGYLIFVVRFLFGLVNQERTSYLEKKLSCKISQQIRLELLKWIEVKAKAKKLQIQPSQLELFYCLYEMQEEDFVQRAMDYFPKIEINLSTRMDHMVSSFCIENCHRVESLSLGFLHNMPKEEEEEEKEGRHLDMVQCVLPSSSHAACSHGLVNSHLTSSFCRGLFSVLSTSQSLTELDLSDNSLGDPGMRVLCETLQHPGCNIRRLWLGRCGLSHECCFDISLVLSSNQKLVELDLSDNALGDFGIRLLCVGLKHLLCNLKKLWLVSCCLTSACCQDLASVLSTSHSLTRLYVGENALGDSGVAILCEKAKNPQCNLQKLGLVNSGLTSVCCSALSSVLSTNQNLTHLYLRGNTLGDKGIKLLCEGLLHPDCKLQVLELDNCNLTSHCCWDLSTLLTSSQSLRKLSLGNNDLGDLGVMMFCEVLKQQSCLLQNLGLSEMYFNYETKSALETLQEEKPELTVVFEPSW

In the case of `CCCCCCCCCCCCC/C=C/[C@@H](O)[C@@H](N)COP(=O)(O)O` [S1P, sphingosine‐1‐phosphate], the “Direct interaction with NLRP3 by MST” value in test [1] was “not observed”. For the same compound, the “Il6 expression and production of IL6, CXCL2, CCL5 and IL16” value in test [2] is “markedly impaired in Nod1/2 KO and Rip2 KO BMDMs”. Also, in test [3] (20 µM with digitonin, Fig EV4G), the “NOD1 or NOD2 degradation” value is “did not induce NOD1 or NOD2 degradation”. Moreover, the “MAPK activation and NF-κB activation” value in test [3] (cytosolic S1P 20 µM) is “triggered MAPK activation and NF‐κB activation”. The Kd in test [4] (Fig 6E, one representative experiment, read-out: Kd (NOD2/ligand)) is 5.36 ± 1.91 µM; in test [4] (Fig EV5C, purified NOD2, read-out: Kd (NOD2/ligand)) it was 3.19 ± 1.97 µM; in test [4] (Kd value of S1P interacting with NOD2, as stated in text), around 5 µM; in test [4] (Kd(NOD2: S1P), Fig 7D, S1P alone), 2.4 ± 0.38 µM.
